Earlier results on one molecule are cited in patent US9314435B2, “Stable formulations of antiplatelet agents, omega-3 fatty acids and amylose in soft gelatin capsules” (ALTERGON S.A., priority 2011, dated 2016).

The conditions of this series: 325 mg on alternate days.

Regarding `CC(=O)Oc1ccccc1C(=O)O` [ASA, Acetylsalicylic acid], the “reduction of the risk of the first heart attack” value is given as 44%.
